Our source for the flash point values is a flash point compilation (Sun et al. 2020).

Each structure is given as a SMILES string.

`C[Si](Cl)(Cl)CCC#N` [2-Cyanoethylmethyldichlorosilane] yielded a flash point of 60.00 °C.

For the molecule `CCO[Si](CCC#N)(OCC)OCC` [2-Cyanoethyltriethoxysilane], the flash point is 86.00 °C.

`C[Si](C)(C)C1C=CCC1` (configuration not stated) [3-(Trimethylsilyl)cyclopentene] showed a flash point of 26.00 °C.

Molecule `CO[Si](CCCCl)(OC)OC` [3-Chloropropyltrimethoxysilane] gave a flash point of 75.00 °C.

For the molecule `C=CCO[Si](C)(C)C` [Allyloxytrimethylsilane], the flash point was determined as 0.00 °C.

Molecule `C[Si](C)(C)Cc1ccccc1` [Benzyltrimethylsilane] returned a flash point of 62.00 °C.

Consider `CCN(CC)[Si](C)(C)N(CC)CC` [Bis(diethylamino)dimethylsilane], for which the flash point was 35.00 °C.

`CN(C)[Si](C)(C)N(C)C` [Bis(dimethylamino)dimethylsilane]: the flash point is -7.00 °C.

In turn, `C[Si](C)(Cl)CBr` [Bromomethyldimethylchlorosilane] displayed a flash point of 41.00 °C.

Molecule `C[Si](C)(Cl)CCC(F)(F)F` [Chlorodimethyl(3,3,3-trifluoropropyl) silane] yielded a flash point of 20.00 °C.

Molecule `Cl[Si](Cl)(Cl)C1CCCCC1` [Cyclohexyltrichlorosilane] yielded a flash point of 85.00 °C.

Regarding `C[Si](C)(C)C1C=CC=C1` [Cyclopentadienyltrimethylsilane], the flash point is 29.00 °C.

For `Cl[SiH](Cl)C1CCCC1` [Cyclopentyldichlorosilane], the flash point amounted to 43.00 °C.

In the case of `C[Si]1(C)O[Si](C)(C)O[Si](C)(C)O[Si](C)(C)O[Si](C)(C)O1` [Decamethylcyclopentasiloxane], the flash point came to 77.00 °C.

For `CC(C)(C)[Si](C)(Cl)C(C)(C)C` [Di-t-butylmethylchlorosilane], the flash point is 69.00 °C.

In the case of `C[Si](Cl)(Cl)C(Cl)Cl` [Dichloromethylmethyldichlorosilane], the flash point amounted to 28.00 °C.

As to `CC[SiH2]CC` [Diethylsilane], the flash point was -20.00 °C.

Regarding `C[SiH](C)c1c(F)c(F)c(F)c(F)c1F` [Dimethyl(pentafluorophenyl) silane], the flash point worked out at 40.00 °C.

Consider `C[SiH](C)Cl` [Dimethylchlorosilane], for which the flash point is -28.00 °C.

For the molecule `C[Si](C)(Cl)Cl` [Dimethyldichlorosilane], the flash point was -16.00 °C.

The molecule `CCO[Si](C)(C)OCC` [Dimethyldiethoxysilane] had a flash point of 11.00 °C.

`CO[Si](C)(C)OC` [Dimethyldimethoxysilane] gave a flash point of -8.00 °C.

In turn, `Cl[Si](Cl)(c1ccccc1)c1ccccc1` [Diphenyldichlorosilane] came in with a flash point of 142.00 °C.

In turn, `CO[Si](OC)(c1ccccc1)c1ccccc1` [Diphenyldimethoxysilane] had a flash point of 121.00 °C.

Regarding `C=C[Si](C)(C)C=C` [Divinyldimethylsilane], the flash point is 8.00 °C.

`C[Si](C)(C)O[Si](C)(C)O[Si](C)(C)O[Si](C)(C)O[Si](C)(C)C` [Dodecamethylpentasiloxane] showed a flash point of 79.00 °C.

The molecule `CC[Si](C)(C)Cl` [ETHYLDIMETHYLCHLOROSILANE] registered a flash point of -4.00 °C.

With `CCO[Si](C)(C)C` [Ethoxytrimethylsilane], the flash point is -27.00 °C.

`CC[Si](OC(C)=O)(OC(C)=O)OC(C)=O` [Ethyltriacetoxysilane] came in with a flash point of 104.00 °C.

Regarding `CN([Si](C)(C)C)[Si](C)(C)C` [Heptamethyldisilazane], the flash point worked out at 27.00 °C.

For `CCCCCCCCCCCCCCCC[Si](Cl)(Cl)Cl` [Hexadecyltrichlorosilane], the flash point is 154.00 °C.

The molecule `C[Si]1(C)O[Si](C)(C)O[Si](C)(C)O1` [Hexamethylcyclotrisiloxane] yielded a flash point of 32.00 °C.
